What was measured:
Assay type in all cases: functional, cell-based
HCT-116 = assay: Cytotoxicity against human HCT116 cells after 96 hrs by MTT assay; conditions: for IC50: HCT-116, 96 h
HepG2 = assay: Cytotoxicity against human HepG2 cells after 96 hrs by MTT assay; conditions: for IC50: HepG2, 96 h
MCF7 = assay: Cytotoxicity against human MCF7 cells after 96 hrs by MTT assay; conditions: for IC50: MCF7, 96 h

Compound	IC50 (HCT-116)	IC50 (HepG2)	IC50 (MCF7)	Activity (HCT-116)	Activity (HepG2)	Activity (MCF7)
CC[C@H](CC[C@@H](C)[C@H]1CC[C@H]2[C@@H]3CC(=O)[C@H]4C[C@@H](OC(C)=O)CC[C@]4(C)[C@H]3CC[C@]12C)C(C)C	5.02 µM	4.87 µM	3.54 µM	–	–	–
CC[C@H](CC[C@@H](C)[C@H]1CC[C@H]2[C@@H]3CC(=O)N(CCO)[C@H]4C[C@@H](OC(C)=O)CC[C@]4(C)[C@H]3CC[C@]12C)C(C)C	4.24 µM	4.52 µM	3.02 µM	Dose-dependent effect	Dose-dependent effect	Dose-dependent effect
CC[C@H](CC[C@@H](C)[C@H]1CC[C@H]2[C@@H]3CC(=O)N(CCO)[C@H]4C[C@@H](Cl)CC[C@]4(C)[C@H]3CC[C@]12C)C(C)C	2.72 µM	3.02 µM	2.55 µM	Dose-dependent effect	Dose-dependent effect	Dose-dependent effect
CC[C@H](CC[C@@H](C)[C@H]1CC[C@H]2[C@@H]3CC(=O)[C@H]4C[C@@H](Cl)CC[C@]4(C)[C@H]3CC[C@]12C)C(C)C	3.15 µM	3.56 µM	3.01 µM	–	–	–
CC[C@H](CC[C@@H](C)[C@H]1CC[C@H]2[C@@H]3CC(=O)[C@H]4CCCC[C@]4(C)[C@H]3CC[C@]12C)C(C)C	4.51 µM	5.22 µM	3.34 µM	–	–	–
COc1cccc2c1C(=O)c1c(O)c3c(c(O)c1C2=O)C[C@@](O)(C(=O)CO)C[C@@H]3O[C@H]1C[C@H](N)[C@H](O)[C@H](C)O1 [DOXORUBICIN]	2.56 µM	2.68 µM	2.44 µM	–	–	–
CC[C@H](CC[C@@H](C)[C@H]1CC[C@H]2[C@@H]3CC(=O)N(CCO)[C@H]4CCCC[C@]4(C)[C@H]3CC[C@]12C)C(C)C	3.96 µM	4.68 µM	2.98 µM	Dose-dependent effect	Dose-dependent effect	Dose-dependent effect

Source: ChEMBL document CHEMBL2429808, “Synthesis, characterization, and cytotoxicity of N-2-hydroxyethyl-substituted azastigmastanes” (Med Chem Res, 2013)
